In patent US5482957A, “Azole derivatives, process for their preparation and their use” (Hoechst Aktiengesellschaft, priority 1991, dated 1996):

Target: angiotensin II receptor
Assay: Displacement of 125I- or 3H-angiotensin II from receptor preparations from various organs (liver, lung, adrenal gland, brain etc.)
Format: binding
Conditions: Table 1; radioligand displacement, 25° C., 90 min, pH 7.4
Description: Alternatively, the affinity of the compounds of the formula I for the angiotensin II receptor can be determined by measurement of the ^125 I-angiotensin II or ^3 H-angiotensin II displacement of receptor preparations from various organs (liver, lung, adrenal gland, brain etc.).
To this end, the prepared membranes are suspended in an incubation buffer ([…], pH 7.4, containing 135 mM NaCl, 10 mM KCl, 10 mM MgCl2, 5 mM glucose, 0.2% bovine serum albumin and the protease inhibitors PMSF, 0.3 mM, and bacitracin, 0.1 mM) and incubated at 25° C. for 90 min together with the radioactively labeled angiotensin II and various concentrations of the compounds to be tested. Bound and free radioligand are then separated by filtration through micro glass fiber filters (GF51, Schleicher and Schull) in a cell collector (SKATRON).
The degree of displacement of the radioligand from the receptor by the test compounds is determined by measurement of the receptor-bound radioactivity on the filters by means of a beta- or gamma-spectrometer. The amount of the displacement of the radioligand from the receptor by the test compounds is indicated by the IC50, i.e. the concentration of the inhibitor which displaces 50% of the bound radioligand from the receptor. The calculation of the IC50 values is carried out by means of PC software (LIGAND, G. A. McPherson 1985, Elsevier BIOSOFT, 68 Hills Road, Cambridge, CB2 1LA, UK.).

**Q.** With CCCCc1nc(SC)c(C(=O)O)n1Cc1ccc(-c2ccccc2S(=O)(=O)NC(=O)Nc2ccc(F)cc2)cc1 [Example 101] as the compound, how does the IC50 read?
**A.** 2.4 nM

**Q.** How did the IC50 turn out when CCCCc1nc(SC)c(C(=O)O)n1Cc1ccc(-c2ccccc2S(=O)(=O)NC(=O)Nc2ccccc2)cc1 [Example 102] was run?
**A.** 2.3 nM

**Q.** CCCCc1nc(SC)c(C(=O)OCC)n1Cc1ccc(-c2ccccc2S(=O)(=O)NC(=O)NCCC)cc1 [Example 105] was tested. Which IC50 did it give?
**A.** 3 nM

**Q.** CCCCc1nc(SC)c(C(=O)O)n1Cc1ccc(-c2ccccc2S(=O)(=O)NC(=O)NCCN2CCOCC2)cc1 [Example 107] was tested. Which IC50 did it give?
**A.** 2.5 nM

**Q.** Which IC50 does the source give for CCCCc1nc(SC)c(C(=O)O)n1Cc1ccc(-c2ccccc2S(=O)(=O)NC(=O)NCCC2CCCN2C)cc1 (stereo not shown) [Example 108] here?
**A.** 0.95 nM

**Q.** Which IC50 does the source give for CCCCc1nc(SC)c(C(=O)O)n1Cc1ccc(-c2ccccc2S(=O)(=O)NC(=O)NCC2CC2)cc1 [Example 109] here?
**A.** 0.6 nM

**Q.** For CCCCc1nc(SC)c(C(=O)OCC)n1Cc1ccc(-c2ccccc2S(=O)(=O)NC(=O)NCC2CC2)cc1 [Example 110], which IC50 is on record?
**A.** 0.5 nM

**Q.** With CCCCc1nc(SC)c(C(=O)O)n1Cc1ccc(-c2ccccc2S(=O)(=O)NC(=O)NCCCN2CCCCC2C)cc1 (stereo not shown) [Example 111] as the compound, how does the IC50 read?
**A.** 2.9 nM

**Q.** CCCCc1nc(SC)c(C(=O)O)n1Cc1ccc(-c2ccccc2S(=O)(=O)NC(=O)NCc2cccnc2)cc1 [Example 112] was tested. Which IC50 did it give?
**A.** 1.5 nM

**Q.** Which IC50 does the source give for CCCCc1nc(SC)c(C(=O)O)n1Cc1ccc(-c2ccccc2S(=O)(=O)NC(=O)NCc2ccccn2)cc1 [Example 113] here?
**A.** 0.3 nM

**Q.** CCCCc1nc(SC)c(C(=O)O)n1Cc1ccc(-c2ccccc2S(=O)(=O)NC(=O)NCc2ccncc2)cc1 [Example 115] was tested. Which IC50 did it give?
**A.** 0.9 nM

**Q.** How did the IC50 turn out when CCCCc1nc(SC)c(C(=O)O)n1Cc1ccc(-c2ccccc2S(=O)(=O)NC(=O)NCCCN2CCCC2=O)cc1 [Example 116] was run?
**A.** 2.4 nM

**Q.** Which IC50 does the source give for CCCCc1nc(SC)c(C(=O)OCC)n1Cc1ccc(-c2ccccc2S(=O)(=O)NC(=O)NCC2CCNCC2)cc1 [Example 117] here?
**A.** 1.2 nM

**Q.** With CCCCc1nc(SC)c(C(=O)O)n1Cc1ccc(-c2ccccc2S(=O)(=O)NC(=O)N[C@H](CO)c2ccccc2)cc1 [Example 124] as the compound, how does the IC50 read?
**A.** 1.8 nM

**Q.** CCCCc1nc(SC)c(C(=O)O)n1Cc1ccc(-c2ccccc2S(=O)(=O)NC(=O)N[C@@H](CO)c2ccccc2)cc1 [Example 125] was tested. Which IC50 did it give?
**A.** 2.8 nM

**Q.** C=C[C@H](Cc1ccccc1)NC(=O)NS(=O)(=O)c1ccccc1-c1ccc(Cn2c(CCCC)nc(SC)c2C(=O)O)cc1 [Example 127] was tested. Which IC50 did it give?
**A.** 3 nM

**Q.** With CCCCc1nc(SC)c(C(=O)OCC)n1Cc1ccc(-c2ccccc2S(=O)(=O)NC(=O)N[C@H](CO)Cc2ccccc2)cc1 [Example 128] as the compound, how does the IC50 read?
**A.** 5.6 nM

**Q.** Which IC50 does the source give for CCCCc1nc(SC)c(C(=O)O)n1Cc1ccc(-c2ccccc2S(=O)(=O)NC(=O)N[C@H](CO)Cc2ccccc2)cc1 [Example 129] here?
**A.** 1.5 nM

**Q.** For CCCCc1nc(SC)c(C(=O)OCC)n1Cc1ccc(-c2ccccc2S(=O)(=O)NC(=O)NCC2CCC3CC2C3(C)C)cc1 (stereo not shown) [Example 134], which IC50 is on record?
**A.** 180 nM

**Q.** Which IC50 does the source give for CCCCc1nc(SC)c(C(=O)O)n1Cc1ccc(-c2ccccc2S(=O)(=O)NC(=O)NCC2CCC3CC2C3(C)C)cc1 (stereo not shown) [Example 135] here?
**A.** 5.6 nM

**Q.** For CCCCc1nc(SC)c(C(=O)OCC)n1Cc1ccc(-c2ccccc2S(=O)(=O)NC(=O)n2cccc2)cc1 [Example 138], which IC50 is on record?
**A.** 1.7 nM

**Q.** With CCCCc1nc(SC)c(C(=O)O)n1Cc1ccc(-c2ccccc2S(=O)(=O)NC(=O)n2cccc2)cc1 [Example 139] as the compound, how does the IC50 read?
**A.** 2.8 nM

**Q.** Which IC50 does the source give for CCCCc1nc(SC)c(C(=O)OCC)n1Cc1ccc(-c2ccccc2S(=O)(=O)NC(=O)N2CCOCC2)cc1 [Example 140] here?
**A.** 8.2 nM

**Q.** Which IC50 does the source give for CCCCc1nc(SC)c(C(=O)OCC)n1Cc1ccc(-c2ccccc2S(=O)(=O)NC(=O)N2CCCC2)cc1 [Example 141] here?
**A.** 4.4 nM

**Q.** How did the IC50 turn out when CCCCc1nc(SC)c(C(=O)OCC)n1Cc1ccc(-c2ccccc2S(=O)(=O)NC(=O)N2CCSCC2)cc1 [Example 144] was run?
**A.** 5.3 nM

**Q.** For CCCCc1nc(SC)c(C(=O)OCC)n1Cc1ccc(-c2ccccc2S(=O)(=O)NC(=O)N2CCC(NC(=O)OC(C)(C)C)CC2)cc1 [Example 146], which IC50 is on record?
**A.** 40 nM

**Q.** For CCCCc1nc(SC)c(C(=O)OCC)n1Cc1ccc(-c2ccccc2S(=O)(=O)NC(=O)OCCc2ccccc2)cc1 [Example 151], which IC50 is on record?
**A.** 0.4 nM

**Q.** Which IC50 does the source give for CCCCc1nc(SC)c(C(=O)O)n1Cc1ccc(-c2ccccc2S(=O)(=O)NC(=O)OCCc2ccccc2)cc1 [Example 152] here?
**A.** 1.5 nM

**Q.** For C=CCCOC(=O)NS(=O)(=O)c1ccccc1-c1ccc(Cn2c(CCCC)nc(SC)c2C(=O)O)cc1 [Example 153], which IC50 is on record?
**A.** 0.88 nM

**Q.** With C#CCCOC(=O)NS(=O)(=O)c1ccccc1-c1ccc(Cn2c(CCCC)nc(SC)c2C(=O)O)cc1 [Example 154] as the compound, how does the IC50 read?
**A.** 1.8 nM

**Q.** With CCCCc1nc(SC)c(C(=O)O)n1Cc1ccc(-c2ccccc2S(=O)(=O)NC(=O)OCC2CC2)cc1 [Example 155] as the compound, how does the IC50 read?
**A.** 6 nM

**Q.** Which IC50 does the source give for CCCCc1nc(SC)c(C(=O)OCC)n1Cc1ccc(-c2ccccc2S(=O)(=O)NC(=O)OCCOC(C)C)cc1 [Example 156] here?
**A.** 4.7 nM

**Q.** How did the IC50 turn out when CCCCc1nc(SC)c(C(=O)O)n1Cc1ccc(-c2ccccc2S(=O)(=O)NC(=O)OCCOC(C)C)cc1 [Example 157] was run?
**A.** 1.4 nM

**Q.** How did the IC50 turn out when CCCCc1nc(SC)c(C(=O)OCC)n1Cc1ccc(-c2ccccc2S(=O)(=O)NC(=O)OCc2cccs2)cc1 [Example 159] was run?
**A.** 8.7 nM

**Q.** CCCCc1nc(SC)c(C(=O)O)n1Cc1ccc(-c2ccccc2S(=O)(=O)NC(=O)OCc2cccs2)cc1 [Example 160] was tested. Which IC50 did it give?
**A.** 0.73 nM

**Q.** How did the IC50 turn out when CCCCc1nc(SC)c(C(=O)OCC)n1Cc1ccc(-c2ccccc2S(=O)(=O)NC(=O)OCC=Cc2ccccc2)cc1 [Example 161] was run?
**A.** 57 nM

**Q.** For CCCCc1nc(SC)c(C(=O)O)n1Cc1ccc(-c2ccccc2S(=O)(=O)NC(=O)OCC=Cc2ccccc2)cc1 [Example 162], which IC50 is on record?
**A.** 3.9 nM

**Q.** How did the IC50 turn out when CCCCc1nc(SC)c(C(=O)OCC)n1Cc1ccc(-c2ccccc2S(=O)(=O)NC(=O)OCc2cccs2)cc1 [Example 163] was run?
**A.** 3.7 nM

**Q.** Which IC50 does the source give for CCCCc1nc(SC)c(C(=O)O)n1Cc1ccc(-c2ccccc2S(=O)(=O)NC(=O)OCc2cccs2)cc1 [Example 164] here?
**A.** 0.86 nM

**Q.** For CCCCc1nc(SC)c(C(=O)O)n1Cc1ccc(-c2ccccc2S(=O)(=O)NC(=O)OCC=C(C)C)cc1 [Example 165], which IC50 is on record?
**A.** 2.3 nM

**Q.** Which IC50 does the source give for C=C(C)COC(=O)NS(=O)(=O)c1ccccc1-c1ccc(Cn2c(CCCC)nc(SC)c2C(=O)O)cc1 [Example 166] here?
**A.** 1.2 nM

**Q.** With C=CCCCOC(=O)NS(=O)(=O)c1ccccc1-c1ccc(Cn2c(CCCC)nc(SC)c2C(=O)O)cc1 [Example 167] as the compound, how does the IC50 read?
**A.** 4 nM

**Q.** For CCCCc1nc(SC)c(C(=O)O)n1Cc1ccc(-c2ccccc2S(=O)(=O)NC(=O)OCC2CC=CCC2)cc1 (stereo not shown) [Example 168], which IC50 is on record?
**A.** 7 nM

**Q.** Which IC50 does the source give for CC#CCOC(=O)NS(=O)(=O)c1ccccc1-c1ccc(Cn2c(CCCC)nc(SC)c2C(=O)O)cc1 [Example 169] here?
**A.** 2.9 nM

**Q.** For CCCCc1nc(SC)c(C(=O)OCC)n1Cc1ccc(-c2ccccc2S(=O)(=O)NC(=O)OCC)cc1 [Example 170], which IC50 is on record?
**A.** 2.7 nM

**Q.** For CCCCc1nc(SC)c(C(=O)O)n1Cc1ccc(-c2ccccc2S(=O)(=O)NC(=O)OCC)cc1 [Example 171], which IC50 is on record?
**A.** 0.7 nM

**Q.** CCCCc1nc(SC)c(C(=O)O)n1Cc1ccc(-c2ccccc2S(=O)(=O)NC(=O)OCCOCc2ccccc2)cc1 [Example 172] was tested. Which IC50 did it give?
**A.** 0.48 nM

**Q.** CCCCc1nc(SC)c(C(=O)OCC)n1Cc1ccc(-c2ccccc2S(=O)(=O)NC(=O)OC)cc1 [Example 174] was tested. Which IC50 did it give?
**A.** 5.1 nM

**Q.** CCCCc1nc(SC)c(C(=O)O)n1Cc1ccc(-c2ccccc2S(=O)(=O)NS(=O)(=O)N(C)C)cc1 [Example 179, 1-[1-(2'-dimethylsulfamoylaminosulfonylbiphenyl-4-yl)methyl]-2-n-butyl-4-methylthioimidazole-5-carboxylic acid] was tested. Which IC50 did it give?
**A.** 2.6 nM

**Q.** Which IC50 does the source give for C=CCOC(=O)NS(=O)(=O)c1ccccc1-c1ccc(Cn2c(CCCC)nc(SC)c2C(=O)O)cc1 [Example 181, 1-[(2'-allyloxycarbonylaminosulfonylbiphenyl-4-yl)methyl]-2-n-butyl-4-methylthioimidazole-5-carboxylic acid] here?
**A.** 1 nM

**Q.** CCCCc1nc(SC)c(C(=O)O)n1Cc1ccc(-c2ccccc2S(=O)(=O)NC(=O)OCc2ccccc2)cc1 [Example 183, 1-[(2'-Benzyloxycarbonylaminosulfonylbiphenyl-4-yl)methyl]-2-n-butyl-4-methylthioimidazole-5-carboxylic acid] was tested. Which IC50 did it give?
**A.** 1.7 nM

**Q.** Which IC50 does the source give for CCCCc1nc(OC)c(C=O)n1Cc1ccc(-c2ccccc2S(=O)(=O)NC(=O)OCC)cc1 [Example 185, 1-{[(2'-Ethoxycarbonylaminosulfonyl)biphenyl-4-yl]-methyl}-2-n-butyl-4-methoxyimidazole-5-carbaldehyde] here?
**A.** 5.9 nM

**Q.** Which IC50 does the source give for CCCCc1nc(OC)c(C=O)n1Cc1ccc(-c2ccccc2S(=O)(=O)NC(=O)OCc2ccccc2)cc1 [Example 186, 1-{[(2'-Benzyloxycarbonylaminosulfonyl)biphenyl-4-]methyl}-2-n-butyl-4-methoxyimidazole-5-carbaldehyde] here?
**A.** 6.5 nM

**Q.** For CCCCc1ncc(C(=O)OCC)n1Cc1ccc(-c2ccccc2S(=O)(=O)NC(=O)NCc2ccccc2)cc1 [Example 187, Ethyl 1-{[(2'-benzylaminocarbonylaminosulfonyl)biphenyl-4-yl]methyl}-2-n-butylimidazole-5-carboxylate], which IC50 is on record?
**A.** 1.2 nM

**Q.** With CCCCc1nc(SC)c(C(=O)O)n1Cc1ccc(-c2ccccc2S(=O)(=O)NS(=O)(=O)c2cccs2)cc1 [Example 190, 1-[(2'-{2-Thienylsulfonylaminosulfonyl}biphenyl-4-yl)methyl]-2-n-butyl-4-methylthioimidazole-5-carboxylic acid] as the compound, how does the IC50 read?
**A.** 22 nM
